Patent publication EP1484329A1, “Indole derivatives with apoptosis inducing activity” (Zentaris GmbH, priority 2003, dated 2004)
Values after ≈ are worked out from the molar mass of the structure shown. Where two headings read alike, the source gives them in different places.

Legend:
RKOp27 = assay: XTT proliferation assay, RKOp27 cell system with / without induced p27kip1 expression; assay type: cell-based; settings: Homo sapiens
Excerpt: (§1) Die Substanzen 1,2, 4-6 wurden in einem Proliferationstest an etablierten Tumorzelllinien auf ihre anti-proliferative Aktivität hin untersucht (D.A. Scuderio et al. Cancer Res. 1988, 48, 4827-4833). Der verwendete Test bestimmt die zelluläre Dehydrogenase-Aktivität und ermöglicht eine Bestimmung der Zellvitalität und indirekt der Zellzahl. Bei den verwendeten Zelllinien handelt es sich um die humane Cervixkarzinom Zelllinie KB/HeLa (ATCC CCL17), die ovariale Adenokarzinomzelllinie SKOV-3 (ATCC HTB77), die humane Glioblastom Zelllinie SF-268 (NCI 503138) und die Lungenkarzinom Zelllinie NCI-H460 (NCI 503473). Des weiteren wurde zur Untersuchung der Zellzyklus-spezifischen Wirkung der Substanz ein RKOp27 Zellsystem verwendet (M. Schmidt et al. Oncogene19(20):2423-9, 2000). Bei RKO handelt es sich um eine humane Kolonkarzinomlinie, in der der Zellzyklusinhibitor p27 ^kip1 mittels des Ecdyson Expressionssystems induziert zur Expression gebracht und zu einem Zellzyklusarrest spezifisch in G2 geführt werden kann. Eine unspezifisch wirkende Substanz hemmt die Proliferation unabhängig davon, ob die RKO Zelle in G1 oder G2 arretiert ist oder nicht. Zellzyklus-spezifische Substanzen wie beispielsweise Tubulininhibitoren sind hingegen nur dann zytotoxisch, wenn Zellen nicht arretiert sind und der Zellzyklus durchlaufen wird. In Tabelle 1 ist die zytotoxische bzw. wachstumshemmende Aktivität der beschriebenen Verbindungen mit / ohne Expression von p27^kip1gezeigt. Die getesteten Verbindungen zeigten im induzierten Zustand von p27^kiP1 keine zytotoxische Aktivität. Die Ergebnisse zeigen eine sehr potente Hemmung der Proliferation ausgewählter Tumorzelllinien durch die genannten Substanzen.

HT29 = assay: XTT proliferation assay, HT29; assay type: cell-based, human; settings: Homo sapiens, read-out: XTT Proliferationsassay, EC50 HT29
Excerpt: as §1, with “Substanzen. Tabelle 1:” for “Substanzen.”
(§2) Zur weiteren Charakterisierung wurden die Substanzen 1-6 an einem Panel von 7 humanen Tumorzelllinien auf ihre anti-proliferative Wirkung hin untersucht. Bei den untersuchten Zelllinien handelt es sich um die humanen Glioma Zelllinien A172 (ATCC CRL-1620) und U118 (ATCC HTB-15), die humane Lungenkarzinom Zelllinie A549, das humane epidermoide Karzinom A431 (ATCC CRL-2592), die humanen Prostatakarzinom Zelllinien DU145 (ATCC HTB-81) und PC3 (ATCC CRL-1435) und die humane Kolon Adenokarzinomzelllinie HT29 (ATCC HTB-38). Es handelt sich hierbei um sehr gut charakterisierte, etablierte Zelllinien, die von ATCC, ECACC bzw. NCI erhalten und in Kultur genommen wurden. Die in Tab. […]

A549 = assay: XTT proliferation assay, A549; assay type: cell-based, human; settings: Homo sapiens, read-out: XTT Proliferationsassay, EC50 A549
Excerpt: as §1, with “Substanzen. Tabelle 1:” for “Substanzen.”
as §2

DU145 = assay: XTT proliferation assay, DU145; assay type: cell-based, human; settings: Homo sapiens, read-out: XTT Proliferationsassay, EC50 DU145
Excerpt: as §1, with “Substanzen. Tabelle 1:” for “Substanzen.”
as §2

U118MG = assay: XTT proliferation assay, U118MG; assay type: cell-based; settings: Homo sapiens, U-118-MG; read-out: XTT Proliferationsassay, EC50 U118MG
Excerpt: as §1, with “Substanzen. Tabelle 1:” for “Substanzen.”
as §2

P388ADR = assay: XTT proliferation assay, P388ADR (doxorubicin-resistant); assay type: cell-based, murine
Excerpt: as §1, with “Substanzen. Tabelle 1:” for “Substanzen.”
Zur weiteren Charakterisierung wurden die Substanzen 1,2,4-6 gegenüber multi drug resistenten Zelllinien im Vergleich zu den nicht-resistenten Wildtypzelllinien untersucht.
Bei den untersuchten Zelllinien handelt es sich um die murine L1210, die akute myeloische Leukaemie Zelllinie LT12 und um die resistenten Linien L1210/mdr und LT12/mdr. Außerdem wurden die murine P388 Zelllinie (methyl-cholanthreneinduced lymphoid neoplasm) sowie die Doxorubicin-resistente P388 als Testsysteme herangezogen.

Rindertubulin = assay: Inhibition of tubulin polymerisation in vitro; assay type: biochemical, Rind; settings: Tubulin with 30% MAPs; mean of two independent experiments
Excerpt: In diesem Test wird durch Zyklen von Polymerisation und Depolymerisation aufgereinigtes Tubulin eingesetzt, welches durch Zugabe von GTP und Erwärmung zur Polymerisation gebracht wird. […]

DNA-Topoisomerase II = DNA-Topoisomerase II (Homo sapiens, UniProt P11388); assay: kDNA decatenation assay for topoisomerase II activity; assay type: biochemical; settings: tested at 100, 31.6 and 10 µM
Sequence of DNA-Topoisomerase II (P11388 whole entry): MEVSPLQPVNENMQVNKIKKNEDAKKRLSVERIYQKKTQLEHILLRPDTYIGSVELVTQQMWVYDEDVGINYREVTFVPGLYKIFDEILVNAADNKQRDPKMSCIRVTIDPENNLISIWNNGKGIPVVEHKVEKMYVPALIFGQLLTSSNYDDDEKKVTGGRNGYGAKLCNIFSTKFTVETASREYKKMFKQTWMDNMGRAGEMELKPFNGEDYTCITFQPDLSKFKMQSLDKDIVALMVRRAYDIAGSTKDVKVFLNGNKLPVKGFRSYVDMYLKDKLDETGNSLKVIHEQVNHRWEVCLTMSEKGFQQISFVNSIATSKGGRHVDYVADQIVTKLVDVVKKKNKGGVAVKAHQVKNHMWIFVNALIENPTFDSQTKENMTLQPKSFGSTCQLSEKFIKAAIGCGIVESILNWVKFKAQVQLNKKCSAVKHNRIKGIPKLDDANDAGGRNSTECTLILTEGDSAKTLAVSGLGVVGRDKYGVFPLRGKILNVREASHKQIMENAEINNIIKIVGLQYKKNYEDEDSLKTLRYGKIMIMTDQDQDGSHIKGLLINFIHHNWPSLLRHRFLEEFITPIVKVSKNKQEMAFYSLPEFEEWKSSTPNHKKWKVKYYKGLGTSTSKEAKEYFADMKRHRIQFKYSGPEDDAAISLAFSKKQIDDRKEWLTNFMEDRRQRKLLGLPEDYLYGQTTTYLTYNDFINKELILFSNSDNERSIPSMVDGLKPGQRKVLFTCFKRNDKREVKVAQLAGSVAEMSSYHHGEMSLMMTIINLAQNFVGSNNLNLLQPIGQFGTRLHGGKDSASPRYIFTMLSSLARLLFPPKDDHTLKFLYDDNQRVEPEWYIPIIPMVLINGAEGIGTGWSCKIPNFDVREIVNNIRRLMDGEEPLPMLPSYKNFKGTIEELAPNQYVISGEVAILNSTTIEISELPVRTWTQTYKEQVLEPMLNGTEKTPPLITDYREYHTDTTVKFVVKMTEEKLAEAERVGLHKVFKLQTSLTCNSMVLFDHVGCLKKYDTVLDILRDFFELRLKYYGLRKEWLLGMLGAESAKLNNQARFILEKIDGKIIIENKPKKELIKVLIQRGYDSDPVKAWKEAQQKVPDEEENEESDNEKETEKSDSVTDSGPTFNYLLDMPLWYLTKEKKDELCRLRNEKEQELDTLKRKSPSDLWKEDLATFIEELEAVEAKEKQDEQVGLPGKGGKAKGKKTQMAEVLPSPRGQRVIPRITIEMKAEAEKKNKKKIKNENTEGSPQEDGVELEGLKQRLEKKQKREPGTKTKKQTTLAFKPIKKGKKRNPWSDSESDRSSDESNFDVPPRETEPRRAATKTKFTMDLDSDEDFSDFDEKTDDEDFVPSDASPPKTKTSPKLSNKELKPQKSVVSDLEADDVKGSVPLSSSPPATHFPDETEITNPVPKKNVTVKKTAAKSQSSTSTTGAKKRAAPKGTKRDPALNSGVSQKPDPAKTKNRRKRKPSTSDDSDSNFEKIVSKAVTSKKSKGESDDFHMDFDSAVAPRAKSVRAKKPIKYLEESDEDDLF
Method: In diesem von P. Arimondo (Anti-Cancer Drug Design 2000, 15 (6), 413-421) beschriebenen Assay wird kDNA mit humaner DNA-Topoisomerase II in Abwesenheit oder Gegenwart der Testverbindungen behandelt. Die Testung der erfindungsgemäßen Verbindungen 2, 4 und 5 erfolgte hierbei bei drei unterschiedlichen Konzentrationen (100, 31.6 und 10 µM). Zum Vergleich setzte man eine Positivkontrolle und die Referenzverbindungen m-Amsacrin (m-Amsa), Paclitaxel und Vincristine bei einer jeweiligen Konzentration von 100µM ein.
Zu 1µL vorgelegter Testsubstanz (20fach konzentriert in 100% DMSO) werden 2µL 10x Assay Puffer, 1µL kDNA (200ng), 0.5µL human Topoisomerase II (1 unit) und 15,5µL H2O pipettiert und gemischt.
Die Reaktionsansätze werden in den auf 37°C vorgeheizten Heizblock gestellt und 10min bei 37°C inkubiert. Die Inkubation wird nach Zugabe von 4µL 5x Stop Puffer gestoppt und nachfolgend die Substanz mit CIA extrahiert. Danach werden 20µL des Überstandes auf ein 1 % Agarosegel mit 0,25µg/mL Ethidiumbromid aufgetragen und 1h bei 100V aufgetrennt. Zum Schluss wird das Gel unter UV-Anregung fotografiert (s. Graph 1). Die Quantifizierung der Inhibierung der Decatenation von kDNA erfolgt mit der GeIPro® Analyzer Software (s. Graph 2) [formula] [formula]

[1] = RKOP27, without expression of p27kip1, read-out: XTT Proliferationsassay, EC50 RKOP27
[2] = RKOP27 ind., p27kip1 expression induced (cells arrested), read-out: XTT Proliferationsassay, EC50 RKOP27 ind.
[3] = Mus musculus, P388/ADR; read-out: XTT Proliferationsassay, EC50 P388ADR

| SMILES | EC50 (RKOp27; [1]) | EC50 (RKOp27; [2]) | EC50 (HT29; HT-29, HT29) | EC50 (A549; A549, A549) | EC50 (DU145; DU-145, DU145) | EC50 (U118MG) | EC50 (P388ADR; [3]) | Hemmung der Tubulin-Polymerisation, EC50 (Rindertubulin) | Hemmung der Topoisomerase II (kDNA Assay) (DNA-Topoisomerase II) | EC50 (HT29; HT-29) | EC50 (A549; A549) | EC50 (DU145; DU-145) | EC50 (P388ADR; Mus musculus, P388/ADR, read-out: XTT Proliferationsassay, EC50 P388ADR) |
| --- | --- | --- | --- | --- | --- | --- | --- | --- | --- | --- | --- | --- | --- |
| O=C(Nc1ccc2ncccc2c1)C(=S)c1cn(Cc2ccc(Cl)cc2)c2ccccc12 [Verbindung 4, 2-[1-(4-Chlorbenzyl)-1 H-indol-3-yl]-N-chinolin-6-yl-2-thioxoacetamid] | 0.053 µg/mL (≈ 0.116 µM) | > 3.16 µg/mL | 0.04 µg/mL (≈ 0.0877 µM) | 0.041 µg/mL (≈ 0.0899 µM) | 0.045 µg/mL (≈ 0.0987 µM) | 0.03 µg/mL (≈ 0.0658 µM) | 0.051 µg/mL (≈ 0.112 µM) | 0.97 µg/mL | signifikante Hemmung der Topoisomerase II | – | – | – | – |
| O=C(Nc1cnc2nccnc2c1)C(=O)c1cn(Cc2ccc(Cl)cc2)c2ccccc12 [Verbindung 5, 2-[1-(4-Chlor-benzyl)-1H-indol-3-yl]-2-oxo-N-pyrido[2,3-b]pyrazin-7-yl-acetamid] | 0.065 µg/mL (≈ 0.147 µM) | > 3.16 µg/mL | 0.07 µg/mL (≈ 0.158 µM) | 0.017 µg/mL (≈ 0.0385 µM) | 0.035 µg/mL (≈ 0.0792 µM) | 0.013 µg/mL (≈ 0.0294 µM) | 0.019 µg/mL (≈ 0.043 µM) | 0.71 µg/mL | Inhibierung der Topoisomerase II | – | – | – | – |
| O=C(Nc1ccc2ncccc2c1)C(=O)c1cn(Cc2ccc(Cl)cc2)c2ccccc12 [Verbindung 2, 2-[1-(4-Chlor-benzyl)-1 H-indol-3-yl]-2-oxo-N-chinolin-6-yl-acetamid] | 0.047 µg/mL (≈ 0.107 µM) | > 3.16 µg/mL | – | – | – | 0.022 µg/mL (≈ 0.05 µM) | – | 1.23 µg/mL | signifikante Hemmung der Topoisomerase II | 0.027 µg/mL (≈ 0.0614 µM) | 0.05 µg/mL (≈ 0.114 µM) | 0.047 µg/mL (≈ 0.107 µM) | 0.056 µg/mL (≈ 0.127 µM) |
